Data as given in patent publication US20160136284A1, “GLIOMA TREATMENT” (priority 2012, published 2016).
“Also recorded” adds a separate entry of the source.

Key:
[1] = Coinfusion of carboplatin and gadolinium-DTPA into pig corona radiata (T1 MRI, LA-ICP-MS); assay type: in vivo; details: carboplatin 0.03 mg/ml coinfused with 0.3% gadolinium-DTPA, CED
Protocol: Carboplatin infusions were undertaken into male Large White Landrace pigs weighing 45 kg using a cannula system developed in-house. Pig anaesthesia, head immobilisation and brain imaging were achieved as we have previously described White et al (2010). Infusions of 120 μl 0.03 mg/ml carboplatin mixed with 0.3% (6 μmol/l) Gadolinium-DTPA (Magnevist: Bayer Healthcare, Germany), were undertaken bilaterally into the corona radiata using a cannula composed of a length of fused silica (outer diameter 220 μm, inner diameter 150 μm) bonded to a glass Hamilton syringe. Except for the distal 3 mm, this fused silica tube was supported along its length by a series of zirconia tubes to ensure that it could be accurately inserted to target. Infusions were performed using the following regime: 0.5 μl/min for 5 min, 1 μl/min for 5 min, 2.5 μl/min for 5 min and then 5 μl/min for 20 min. This regime was employed in an attempt to minimise the occurrence of a sudden surge in pressure at the catheter tip due to elasticity in the infusion tubing. 120 μl was infused as this is the largest volume that we have previously infused into pig white matter without leakage into the ventricular system. Following infusion completion, the cannula was left in place for 10 min prior to being withdrawn slowly by hand. CSF leakage from the burr hole and cannula track was sealed with Cerebond prior to wound closure. […]

[2] = Carboplatin toxicity in rat brain after CED (clinical, H&E, GFAP, DiI); assay type: in vivo
Protocol: Male Wistar rats (Charles River, UK) were group-housed and allowed to acclimatise prior to experimental procedures. Rats weighing 225 to 275 g were anaesthetised with an intraperitoneal dose of medetomidine (Dormitor; 0.4 mg/kg; Pfizer Animal Health, Kent, UK) and ketamine (Ketaset; 100 mg/kg; Pfizer, UK) and placed in a stereotactic frame (Stoelting Co, Wood Dale, Ill. USA). A linear incision was made between the glabella and the occiput and the skull exposed. Burr holes with a diameter of approximately 2 mm were drilled 1.0 mm anterior and 2.5 mm lateral to the bregma and cannulae were inserted to a depth of 2.5 mm below the dura. All cannulae were pre-primed with either saline or carboplatin and the desired dose prior to insertion into the brain. Every attempt was made to ensure that no air bubbles were present in the infusion cannula. Infusions of 2.5 μl of carboplatin at specific concentrations (outlined in Table 1) were conducted at a rate of 5 μl/min. Following infusion completion, the cannula was left in-situ for 10 min before being withdrawn at a rate of 1 mm/min. The wound was then closed with 5.0 Vicryl (Ethicon, Gargrave, UK) a dose of intramuscular buprenorphine was administered (Vetergesic; 0.03 mg/kg; Alstoe Animal Health, York, UK) and the anaesthetic was reversed with an intraperitoneal dose of atipamezole hydrochloride (Antisedan; 5 mg/kg; Pfizer, UK). At predetermined time-points (see Table 1), animals were perfusion fixed with 100 mL of PBS followed by 100 mL of 4% paraformaldehyde (PFA; Fisher Scientific, UK) in PBS (pH 7.4). The brain was then removed from the skull and placed in 4% PFA for 48 hours and then cryoprotected in 30% sucrose (Melford Laboratories, Ipswich, UK) in PBS prior to sectioning.
Rat brains were cut into 35 μm thick coronal sections using a Leica CM1850 cryostat (Leica Microsystems, Wetzlar, Germany) at −20° C. For haematoxylin and eosin staining, fixed sections were mounted on gelatine-subbed slides. Sections were submerged in 4% PFA for 20 minutes, dehydrated and then stained with haematoxylin and eosin (Cell Path, Hemel Hempstead, UK) according to standard protocols. Following this, sections were coverslipped with Pertex mounting medium (Cell Path, UK) and allowed to dry in the fumehood overnight before imaging with a Leica CTR 5500 microscope (Leica Microsystems, Germany). Sections were assessed by light microscopy to ensure that the cannula track in each brain terminated in the corpus callosum.
For fluorescent immunohistochemistry, free-floating sections were washed with PBS for 5 min×3. Sections were then blocked in PBS plus 0.1% triton-x-100 (Sigma Aldrich, UK) containing 10% normal donkey serum (Sigma Aldrich, UK) for 1 hour at RT. Sections were then washed with PBS for 5 min. […]

[3] = up to 0.9 mg/ml, vs 0.9% saline

Compound: N.N.O=C([O-])C1(C(=O)[O-])CCC1.[Pt+2] [carboplatin]
- distribution in pig corona radiata (LA-ICP-MS) [1]: widespread carboplatin distribution
- histological tissue toxicity (haematoxylin and eosin) ([2]; 0.03-0.9 mg/ml, up to 30 days): no histological evidence of tissue disruption; also recorded: No evidence of tissue toxicity
- clinical tolerability / toxicity ([2]; single CED infusions, concentrations of up to 0.9 mg/ml): well tolerated; also recorded: no clinical or histological evidence of toxicity
- gliosis in white matter (GFAP immunostaining) [2, 3]: minimal evidence of gliosis
- white matter tract integrity (DiI staining) [2, 3]: no loss of white matter tract integrity
